How the values were obtained:
PC-3 cells = assay: Cell Proliferation Assay (Cell Titer Glo), PC-3 cell line; assay type: cell-based; details: Homo sapiens, PC-3, Cell Proliferation Assay, PC3; read-out: CPEC50 PC3
Summary of the method: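 Cell Titer Glo luminescence, read after fresh medium replaced the dosing medium, gave viability of PC-3 cells plated at 1000 cells/well. Compounds, 1:3 serially diluted in DMSO at 500× and then in medium, were added after 3-5 h adhesion and incubated 3 days at 37° C.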

PDK1 kinase = molecular target: T1, PDK1 kinase (Homo sapiens, UniProt O15530); assay: PDK1 Kinase Alpha Screen Assay; assay type: biochemical; details: PDK1 Kinase Alpha Screen Assay; read-out: PDK1 IC50
T1 sequence (O15530 1-556): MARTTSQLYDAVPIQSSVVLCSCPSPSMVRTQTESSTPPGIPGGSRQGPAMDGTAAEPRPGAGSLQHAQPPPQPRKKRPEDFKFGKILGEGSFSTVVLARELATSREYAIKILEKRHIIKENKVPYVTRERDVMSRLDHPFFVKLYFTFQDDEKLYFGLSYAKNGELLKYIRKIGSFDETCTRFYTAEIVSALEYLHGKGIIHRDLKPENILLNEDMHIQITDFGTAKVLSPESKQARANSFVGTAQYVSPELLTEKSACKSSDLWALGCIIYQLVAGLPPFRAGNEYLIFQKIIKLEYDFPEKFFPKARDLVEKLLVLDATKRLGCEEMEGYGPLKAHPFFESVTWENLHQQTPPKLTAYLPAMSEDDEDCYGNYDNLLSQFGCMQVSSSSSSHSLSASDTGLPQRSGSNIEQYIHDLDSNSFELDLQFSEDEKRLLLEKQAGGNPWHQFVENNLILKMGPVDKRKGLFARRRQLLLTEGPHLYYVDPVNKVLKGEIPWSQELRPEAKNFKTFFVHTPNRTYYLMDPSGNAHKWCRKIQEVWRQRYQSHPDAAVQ
Summary of the method: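 PDK1, 10 uM ATP, 50 nM biotin-PDK1-4 peptide; 50 mM Tris pH 7.5, 10 mM MgCl2, 0.1% BSA, 0.01% Tween-20, 2 mM DTT, 2.5% DMSO; 3-18 h. EDTA stop; AlphaScreen, phospho-Ser/Thr antibody, overnight RT.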

Row | Structure (SMILES) | EC50 (PC-3 cells) | IC50 (PDK1 kinase)
1 | c1cc(Nc2ncc3ccc(OC4CCNCC4)cc3n2)cc(N2CCOCC2)c1 [Compound 572, N-(3-morpholinophenyl)-7-(piperidin-4-yloxy)quinazolin-2-amine] | < 5 µM | < 5 µM
2 | CC(C)N1CCC(Oc2ccc3cnc(Nc4cccc(F)c4)nc3c2)CC1 [Compound 573, N-(3-fluorophenyl)-7-(1-isopropylpiperidin-4-yloxy)quinazolin-2-amine] | 5 to 10 µM | < 5 µM
3 | CC(C)N1CCC(Oc2ccc3cnc(Nc4cc(F)cc(F)c4)nc3c2)CC1 [Compound 574, N-(3,5-difluorophenyl)-7-(1-isopropylpiperidin-4-yloxy)quinazolin-2-amine] | < 5 µM | < 5 µM
4 | CC(C)N1CCC(Oc2ccc3cnc(Nc4cccc(C(F)(F)F)c4)nc3c2)CC1 [Compound 575, 7-(1-isopropylpiperidin-4-yloxy)-N-(3-(trifluoromethyl)phenyl)quinazolin-2-amine] | < 5 µM | < 5 µM
5 | COc1cccc(Nc2ncc3ccc(OC4CCN(C(C)C)CC4)cc3n2)c1 [Compound 576, 7-(1-isopropylpiperidin-4-yloxy)-N-(3-methoxyphenyl)quinazolin-2-amine] | 5 to 10 µM | < 5 µM
6 | CC(C)N1CCC(Oc2ccc3cnc(Nc4ccc5nn[nH]c5c4)nc3c2)CC1 [Compound 577, N-(1H-benzo[d][1,2,3]triazol-6-yl)-7-(1-isopropylpiperidin-4-yloxy)quinazolin-2-amine] | 5 to 10 µM | < 5 µM
7 | CC(C)N1CCC(Oc2ccc3cnc(Nc4cccc(N5CCCC5)c4)nc3c2)CC1 [Compound 579, 7-(1-isopropylpiperidin-4-yloxy)-N-(3-(pyrrolidin-1-yl)phenyl)quinazolin-2-amine] | 5 to 10 µM | < 5 µM
8 | CC(C)N1CCC(Oc2ccc3cnc(Nc4cccc(N5CCOCC5)c4)nc3c2)CC1 [Compound 580, 7-(1-isopropylpiperidin-4-yloxy)-N-(3-morpholinophenyl)quinazolin-2-amine] | 5 to 10 µM | 5 to 10 µM
9 | CN1CCN(c2cccc(Nc3ncc4ccc(OC5CCNCC5)cc4n3)c2)CC1 [Compound 581, N-(3-(4-methylpiperazin-1-yl)phenyl)-7-(piperidin-4-yloxy)quinazolin-2-amine] | < 5 µM | < 5 µM
10 | CC(C)N1CCC(Oc2ccc3cnc(Nc4cccc(N5CCN(C)CC5)c4)nc3c2)CC1 [Compound 582, 7-(1-isopropylpiperidin-4-yloxy)-N-(3-(4-methylpiperazin-1-yl)phenyl)quinazolin-2-amine] | 5 to 10 µM | < 5 µM
11 | Cc1nc(Nc2ccc(S(N)(=O)=O)cc2)nc2cc(OCCC3CCNCC3)ccc12 [Compound 583] | 5 to 10 µM | 10 to 25 µM
12 | c1ncc(-c2ccc(Nc3ncc4ccc(OC5CCNCC5)cc4n3)cc2)o1 [Compound 584, N-(4-(oxazol-5-yl)phenyl)-7-(piperidin-4-yloxy)qinazolin-2-amine] | < 5 µM | < 5 µM
13 | O=C(c1ccc(Nc2ncc3ccc(OC4CCNCC4)cc3n2)cc1)N1CCOCC1 [Compound 585, morpholilno(4-(7-(piperidin-4-yloxy)quinazolin-2-ylamino)phenyl)methanone] | < 5 µM | < 5 µM
14 | NS(=O)(=O)c1ccc(Nc2ncc3c(-c4cn[nH]c4)ccc(OC4CCNCC4)c3n2)cc1 [Compound 586, 4-(8-(piperidin-4-yloxy)-5-(1H-pyrazol-4-yl)quinazolin-2-ylamino)benzensulfonamide] | 5 to 10 µM | 5 to 10 µM
15 | COc1cc(Nc2ncc3ccc(OC4CCNCC4)cc3n2)cc(C(F)(F)F)c1 [Compound 587, N-(3-methoxy-5-(trifluoromethyl)phenyl)-7-(piperidin-4-yloxy)quinazolin-2-amine] | < 5 µM | < 5 µM
16 | NC(=O)c1cc(Nc2ncc3ccc(OC4CCNCC4)cc3n2)cc(C(F)(F)F)c1 [Compound 588, 3-(7-(piperidin-4-yloxy)quinazolin-2-ylamino)-5-(trifluoromethyl)benzamide] | < 5 µM | < 5 µM
17 | Fc1ccc(Nc2ncc3ccc(OC4CCNCC4)cc3n2)cc1Br [Compound 589, N-(3-bromo-4-fluorophenyl)-7-(piperidin-4-yloxy)quinazolin-2-amine] | < 5 µM | < 5 µM
18 | CC(C)NC(=O)c1ccc(Nc2ncc3ccc(OC4CCNCC4)cc3n2)cc1 [Compound 590, N-isopropyl-4-(7-(piperidin-4-yloxy)quinazolin-2-ylamino)benzamide] | < 5 µM | < 5 µM
19 | Fc1ccc(Nc2ncc3ccc(OC4CCNCC4)cc3n2)cc1-c1cnoc1 [Compound 592, N-(4-fluoro-3-(isoxazol-4-yl)phenyl)-7-(piperidin-4-yloxy)quinazolin-2-amine] | 5 to 10 µM | < 5 µM
20 | Fc1cc(Nc2ncc3ccc(OC4CCNCC4)cc3n2)ccc1N1CCOCC1 [Compound 593, N-(3-fluoro-4-morpholinophenyl)-7-(piperidin-4-yloxy)quinazolin-2-amine] | < 5 µM | < 5 µM
21 | Clc1cc(Nc2ncc3ccc(OC4CCNCC4)cc3n2)ccc1N1CCOCC1 [Compound 594, N-(3-chloro-4-morpholinophenyl)-7-(piperidin-4-yloxy)quinazolin-2-amine] | < 5 µM | < 5 µM
22 | O=C(c1ccc(Nc2ncc3c(Cl)ccc(OC4CCNCC4)c3n2)cc1)N1CCOCC1 [Compound 595, (4-(5-chloro-8-(piperidin-4-yloxy)quinazolin-2-ylamino)phenyl)(morpholino)methanone] | 5 to 10 µM | < 5 µM

Now from value to compound:

Row | EC50 (PC-3 cells) | IC50 (PDK1 kinase) | Structure (SMILES)
23 | < 5 µM | < 5 µM | Fc1cc(Nc2ncc3ccc(OC4CCNCC4)cc3n2)ccc1Br [Compound 596, N-(4-bromo-3-fluorophenyl)-7-(piperidin-4-yloxy)quinazolin-2-amine]
24 | 5 to 10 µM | < 5 µM | Fc1cc(Nc2ncc3c(Cl)ccc(OC4CCNCC4)c3n2)ccc1N1CCOCC1 [Compound 597, 5-chloro-N-(3-fluoro-4-morpholinophenyl)-8-(piperidin-4-yloxy)quinazolin-2-amine]
25 | 5 to 10 µM | < 5 µM | Cn1cc(-c2ccc(Nc3ncc4ccc(OC5CCNCC5)cc4n3)cc2F)cn1 [Compound 598, N-(3-fluoro-4-(1-methyl-1H-pyrazol-4-yl)phenyl)-7-(piperidin-4-yloxy)quinazolin-2-amine]
26 | < 5 µM | < 5 µM | CC(C)NC(=O)c1ccc(Nc2ncc3c(Cl)ccc(OC4CCNCC4)c3n2)cc1 [Compound 599, 4-(5-chloro-8-(piperidin-4-yloxy)quinazolin-2-ylamino)-N-isopropylbenzamide]
27 | < 5 µM | < 5 µM | Fc1cccc(Nc2ncc3c(Cl)ccc(OC4CCNCC4)c3n2)c1 [Compound 600, 5-chloro-N-(3-fluorophenyl)-8-(piperidin-4-yloxy)quinazolin-2-amine]
28 | 5 to 10 µM | < 5 µM | Clc1ccc(OC2CCNCC2)c2nc(Nc3cccc(N4CCOCC4)c3)ncc12 [Compound 601, 5-chloro-N-(3-morpholinophenyl)-8-(piperidin-4-yloxy)quinazolin-2-amine]
29 | < 5 µM | < 5 µM | Clc1cc(Nc2ncc3c(Cl)ccc(OC4CCNCC4)c3n2)ccc1N1CCOCC1 [Compound 602]
30 | < 5 µM | < 5 µM | CC(C)NS(=O)(=O)c1ccc(Nc2ncc3c(Cl)ccc(OC4CCNCC4)c3n2)cc1 [Compound 603, 4-(5-chloro-8-(piperidin-4-yloxy)quinazolin-2-ylamino)-N-isopropylbenzenesulfonamide]
31 | < 5 µM | < 5 µM | O=C(NC1CC1)c1ccc(Nc2ncc3c(Cl)ccc(OC4CCNCC4)c3n2)cc1 [Compound 604, 4-(5-chloro-8-(piperidin-4-yloxy)quinazolin-2-ylamino)-N-cyclopropylbenzamide]
32 | 5 to 10 µM | < 5 µM | Clc1ccc(OC2CCNCC2)c2nc(Nc3ccc(N4CCOCC4)cc3)ncc12 [Compound 605, 5-chloro-N-(4-morpholinophenyl)-8-(piperidin-4-yloxy)quinazolin-2-amine]
33 | < 5 µM | < 5 µM | O=S(=O)(c1ccc(Nc2ncc3c(Cl)ccc(OC4CCNCC4)c3n2)cc1)N1CCOCC1 [Compound 606, 5-chloro-N-(4-(morpholinosulfonyl)phenyl)-8-(piperidin-4-yloxy)quinazolin-2-amine]
34 | < 5 µM | < 5 µM | CC(C)NS(=O)(=O)c1ccc(Nc2ncc3ccc(OC4CCNCC4)cc3n2)cc1 [Compound 607, N-isopropyl-4-(7-(piperidin-4-yloxy)quinazolin-2-ylamino)benzenesulfonamide]
35 | 5 to 10 µM | < 5 µM | O=C(c1ccc(Nc2ncc3c(Cl)ccc(OC4CNC4)c3n2)cc1)N1CCOCC1 [Compound 608, (4-(8-(azetidin-3-yloxy)-5-chloroquinazolin-2-ylamino)phenyl)(morpholino)methanone]

— patent publication US7932262B2 (Novartis AG, priority 2006, dated 2011)
